According to PMC6018958 (ACS Omega, 2017):

Key:
[1] = target: T1, EGFR^WT (Homo sapiens, UniProt P00533); test: biochemical
[2] = target: T2, EGFR^L858R (Homo sapiens, UniProt P00533, L858R); test: biochemical
[3] = target: T3, EGFR^L858R/T790M (Homo sapiens, UniProt P00533, L858R/T790M); test: biochemical
[4] = target: T1, EGFR^WT; test: Kinetic characterization; type: biochemical
[5] = target: T2, EGFR^L858R; test: Kinetic characterization; type: biochemical
[6] = target: T3, EGFR^L858R/T790M; test: Kinetic characterization; type: biochemical
[7] = target: EGFR^T790M (Homo sapiens, UniProt P00533, T790M); test: SelectScreen kinase profiling; type: biochemical
[8] = tested on: kinases that harbor a cysteine comparable to C797 in the hinge region; test: SelectScreen kinase profiling; type: biochemical; conditions: compound concentration 1 μM; almost all cysteine-containing kinases (Table S1)
[9] = target: T3, EGFR^L858R/T790M; test: SelectScreen kinase profiling

T1 sequence (P00533 25-1210): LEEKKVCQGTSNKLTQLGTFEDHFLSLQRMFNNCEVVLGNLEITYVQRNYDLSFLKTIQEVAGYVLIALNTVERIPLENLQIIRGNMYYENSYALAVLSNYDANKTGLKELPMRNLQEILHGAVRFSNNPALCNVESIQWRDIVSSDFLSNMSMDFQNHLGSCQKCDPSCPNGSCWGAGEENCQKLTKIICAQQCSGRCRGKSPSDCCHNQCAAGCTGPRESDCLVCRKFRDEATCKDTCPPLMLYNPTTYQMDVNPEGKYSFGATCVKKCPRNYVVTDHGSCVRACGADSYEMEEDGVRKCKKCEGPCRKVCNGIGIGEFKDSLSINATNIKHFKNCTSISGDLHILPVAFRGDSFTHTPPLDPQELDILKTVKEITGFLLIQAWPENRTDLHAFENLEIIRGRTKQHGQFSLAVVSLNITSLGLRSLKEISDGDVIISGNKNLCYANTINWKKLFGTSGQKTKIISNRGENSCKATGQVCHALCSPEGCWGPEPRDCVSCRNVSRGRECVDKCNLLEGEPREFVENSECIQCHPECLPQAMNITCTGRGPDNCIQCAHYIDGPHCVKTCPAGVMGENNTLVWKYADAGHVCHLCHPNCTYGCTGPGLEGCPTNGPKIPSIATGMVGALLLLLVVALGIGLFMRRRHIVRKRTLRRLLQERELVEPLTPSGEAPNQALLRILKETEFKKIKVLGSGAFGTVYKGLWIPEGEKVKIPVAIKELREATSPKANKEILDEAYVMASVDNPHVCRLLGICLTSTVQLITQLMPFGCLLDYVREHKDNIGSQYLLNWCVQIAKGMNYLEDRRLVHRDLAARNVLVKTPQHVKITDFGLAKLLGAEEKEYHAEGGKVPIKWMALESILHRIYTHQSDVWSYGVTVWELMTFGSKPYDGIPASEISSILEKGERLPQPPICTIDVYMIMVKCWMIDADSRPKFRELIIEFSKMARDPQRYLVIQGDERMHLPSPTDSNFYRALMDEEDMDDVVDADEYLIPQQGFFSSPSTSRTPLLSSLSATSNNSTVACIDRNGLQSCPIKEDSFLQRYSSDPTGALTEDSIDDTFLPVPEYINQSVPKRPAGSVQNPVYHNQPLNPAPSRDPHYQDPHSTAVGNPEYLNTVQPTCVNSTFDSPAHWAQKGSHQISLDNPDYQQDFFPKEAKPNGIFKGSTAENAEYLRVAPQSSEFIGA
T2 sequence (P00533 25-1210 L858R): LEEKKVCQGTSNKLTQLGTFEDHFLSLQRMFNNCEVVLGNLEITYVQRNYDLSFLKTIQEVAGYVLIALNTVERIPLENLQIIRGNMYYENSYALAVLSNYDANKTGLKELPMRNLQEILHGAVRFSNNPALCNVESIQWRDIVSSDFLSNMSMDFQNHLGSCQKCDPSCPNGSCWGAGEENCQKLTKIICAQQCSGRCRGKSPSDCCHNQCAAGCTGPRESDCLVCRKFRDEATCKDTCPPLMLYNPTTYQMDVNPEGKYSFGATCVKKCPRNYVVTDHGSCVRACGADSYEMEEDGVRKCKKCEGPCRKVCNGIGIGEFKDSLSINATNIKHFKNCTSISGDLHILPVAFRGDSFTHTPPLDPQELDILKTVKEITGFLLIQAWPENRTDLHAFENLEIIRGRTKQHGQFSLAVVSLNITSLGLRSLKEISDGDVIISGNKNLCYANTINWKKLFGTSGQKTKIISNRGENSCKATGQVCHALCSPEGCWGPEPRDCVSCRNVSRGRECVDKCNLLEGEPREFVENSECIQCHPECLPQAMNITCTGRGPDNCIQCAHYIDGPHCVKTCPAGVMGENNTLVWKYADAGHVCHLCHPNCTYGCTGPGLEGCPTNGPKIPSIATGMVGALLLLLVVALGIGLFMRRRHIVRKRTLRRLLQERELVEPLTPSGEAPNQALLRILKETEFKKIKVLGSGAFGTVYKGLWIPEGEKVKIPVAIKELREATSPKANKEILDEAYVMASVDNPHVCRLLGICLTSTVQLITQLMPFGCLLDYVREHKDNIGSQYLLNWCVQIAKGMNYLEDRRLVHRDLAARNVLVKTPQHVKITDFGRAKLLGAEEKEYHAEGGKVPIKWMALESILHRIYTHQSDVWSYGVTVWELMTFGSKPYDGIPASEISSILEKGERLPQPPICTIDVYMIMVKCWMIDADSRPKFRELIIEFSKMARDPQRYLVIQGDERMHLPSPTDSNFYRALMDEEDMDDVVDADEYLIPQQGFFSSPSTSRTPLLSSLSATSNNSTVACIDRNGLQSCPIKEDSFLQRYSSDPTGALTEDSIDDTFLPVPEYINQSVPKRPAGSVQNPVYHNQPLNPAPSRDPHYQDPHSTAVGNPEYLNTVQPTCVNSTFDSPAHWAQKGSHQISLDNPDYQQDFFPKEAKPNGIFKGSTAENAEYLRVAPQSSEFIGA
T3 sequence (P00533 25-1210 T790M/L858R): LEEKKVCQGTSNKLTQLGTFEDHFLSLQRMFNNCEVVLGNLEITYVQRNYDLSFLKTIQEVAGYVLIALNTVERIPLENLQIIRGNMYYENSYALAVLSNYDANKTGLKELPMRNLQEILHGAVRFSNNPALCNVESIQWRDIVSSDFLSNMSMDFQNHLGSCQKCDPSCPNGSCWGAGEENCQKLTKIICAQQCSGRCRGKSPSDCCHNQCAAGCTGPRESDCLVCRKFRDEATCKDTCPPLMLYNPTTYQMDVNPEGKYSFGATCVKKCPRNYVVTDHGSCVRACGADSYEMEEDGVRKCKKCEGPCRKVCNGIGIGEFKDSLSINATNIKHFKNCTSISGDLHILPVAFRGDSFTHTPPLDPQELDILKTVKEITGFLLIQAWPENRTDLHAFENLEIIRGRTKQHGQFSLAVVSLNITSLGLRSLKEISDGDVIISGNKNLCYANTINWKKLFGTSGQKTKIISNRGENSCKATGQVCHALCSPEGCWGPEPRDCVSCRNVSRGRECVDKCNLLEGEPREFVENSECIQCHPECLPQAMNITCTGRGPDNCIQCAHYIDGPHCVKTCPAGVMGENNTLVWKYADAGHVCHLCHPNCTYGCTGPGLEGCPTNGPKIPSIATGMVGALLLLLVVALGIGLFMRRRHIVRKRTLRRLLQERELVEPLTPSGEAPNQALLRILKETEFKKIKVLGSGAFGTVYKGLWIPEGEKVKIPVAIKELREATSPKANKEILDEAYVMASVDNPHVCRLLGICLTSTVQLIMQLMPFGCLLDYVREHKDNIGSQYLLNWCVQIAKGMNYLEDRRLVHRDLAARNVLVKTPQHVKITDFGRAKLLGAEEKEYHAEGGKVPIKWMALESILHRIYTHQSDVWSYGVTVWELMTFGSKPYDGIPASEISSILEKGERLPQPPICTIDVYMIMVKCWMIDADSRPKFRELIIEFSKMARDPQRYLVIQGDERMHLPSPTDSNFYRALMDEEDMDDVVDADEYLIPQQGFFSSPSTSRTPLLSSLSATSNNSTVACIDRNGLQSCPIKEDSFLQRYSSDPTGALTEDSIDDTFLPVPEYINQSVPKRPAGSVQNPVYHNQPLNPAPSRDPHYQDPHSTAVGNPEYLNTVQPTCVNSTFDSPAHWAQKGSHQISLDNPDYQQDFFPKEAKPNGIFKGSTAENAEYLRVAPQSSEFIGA
Chain of EGFR^T790M (P00533 25-1210 T790M): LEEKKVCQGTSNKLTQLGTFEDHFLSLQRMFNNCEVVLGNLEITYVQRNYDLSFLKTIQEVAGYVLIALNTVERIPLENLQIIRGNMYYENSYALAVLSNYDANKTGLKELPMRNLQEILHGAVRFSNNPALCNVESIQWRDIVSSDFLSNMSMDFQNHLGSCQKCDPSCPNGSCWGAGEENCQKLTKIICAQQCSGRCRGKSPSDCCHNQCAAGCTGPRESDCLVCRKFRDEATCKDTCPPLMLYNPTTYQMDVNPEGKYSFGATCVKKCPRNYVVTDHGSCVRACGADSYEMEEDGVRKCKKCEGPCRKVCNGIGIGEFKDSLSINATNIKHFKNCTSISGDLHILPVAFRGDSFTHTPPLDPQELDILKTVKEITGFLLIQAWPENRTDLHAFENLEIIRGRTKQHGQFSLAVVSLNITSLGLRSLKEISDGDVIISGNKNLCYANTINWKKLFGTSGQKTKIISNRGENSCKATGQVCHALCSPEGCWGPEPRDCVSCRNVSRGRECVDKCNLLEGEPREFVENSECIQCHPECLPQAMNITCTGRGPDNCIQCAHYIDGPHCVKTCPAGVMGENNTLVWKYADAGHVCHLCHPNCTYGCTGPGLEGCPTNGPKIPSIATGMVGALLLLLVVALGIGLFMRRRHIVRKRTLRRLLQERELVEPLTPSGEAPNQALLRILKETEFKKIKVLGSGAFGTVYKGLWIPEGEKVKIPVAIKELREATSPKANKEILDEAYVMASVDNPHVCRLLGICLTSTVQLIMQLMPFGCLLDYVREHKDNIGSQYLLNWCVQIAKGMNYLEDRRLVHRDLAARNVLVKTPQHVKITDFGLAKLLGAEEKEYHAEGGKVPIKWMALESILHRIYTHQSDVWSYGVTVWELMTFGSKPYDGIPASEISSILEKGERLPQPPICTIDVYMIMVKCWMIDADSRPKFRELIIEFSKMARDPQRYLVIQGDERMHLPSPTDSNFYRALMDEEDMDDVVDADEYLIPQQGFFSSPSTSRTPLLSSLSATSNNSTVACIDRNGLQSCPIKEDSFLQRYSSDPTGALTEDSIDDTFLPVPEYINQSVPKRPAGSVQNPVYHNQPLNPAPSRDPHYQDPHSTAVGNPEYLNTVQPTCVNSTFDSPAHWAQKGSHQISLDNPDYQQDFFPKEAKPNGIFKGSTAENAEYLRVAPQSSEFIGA

SMILES	IC50 [1] [nM]	IC50 [2] [nM]	IC50 [3] [nM]	Ki [4] [nM]	kinact [4] [s⁻¹]	kinact/KI [4] [M⁻¹ s⁻¹]	Ki [5] [nM]	kinact [5] [s⁻¹]	kinact/KI [5] [M⁻¹ s⁻¹]	Ki [6] [nM]	kinact [6] [s⁻¹]	kinact/KI [6] [M⁻¹ s⁻¹]	inhibition at 1 µM [7] [%]	inhibition [8]	inhibition at 1 µM [9] [%]
N#C/C(=C\C1CC1)C(=O)N1CCC[C@@H](n2nc(-c3ccccc3)c3c(N)ncnc32)C1 [1a, (R,E)-2-(3-(4-Amino-3-phenyl-1H-pyrazolo[3,4-d]pyrimidin-1-yl)piperidine-1-carbonyl)-3-cyclopropylacrylonitrile]	5380 ± 3890	229 ± 62	4540 ± 543												
N#C/C(=C\C1CC1)C(=O)N1CCC[C@@H](n2nc(-c3cccc(C(F)(F)F)c3)c3c(N)ncnc32)C1 [1b, (R,E)-2-(3-(4-Amino-3-(3-(trifluoromethyl)phenyl)-1H-pyrazolo[3,4-d]pyrimidin-1-yl)piperidine-1-carbonyl)-3-cyclopropylacrylonitrile]	> 10000	385 ± 207	2540 ± 420												
N#C/C(=C\C1CC1)C(=O)N1CCC[C@@H](n2nc(-c3cccc4ccccc34)c3c(N)ncnc32)C1 [1c, (R,E)-2-(3-(4-Amino-3-(naphthalen-1-yl)-1H-pyrazolo[3,4-d]pyrimidin-1-yl)piperidine-1-carbonyl)-3-cyclopropylacrylonitrile]	102 ± 75		80 ± 51	64 ± 1	0.0005	10000 ± 10000	14 ± 2	0.000667	680000 ± 250000	15 ± 3	0.00183	730000 ± 160000			
N#C/C(=C\C1CC1)C(=O)N1CCC[C@@H](n2nc(-c3cnc4[nH]ccc4c3)c3c(N)ncnc32)C1 [1d, (R,E)-2-(3-(4-Amino-3-(1H-pyrrolo[2,3-b]pyridin-5-yl)-1H-pyrazolo[3,4-d]pyrimidin-1-yl)piperidine-1-carbonyl)-3-cyclopropylacrylonitrile]	96 ± 26	10 ± 8	20 ± 13	265 ± 1	0.000667	10000 ± 10000	37 ± 6	0.003	200000 ± 10000	51 ± 2	0.00283	50000 ± 20000	~90	more than 50%	~90
Cn1cc(-c2nn([C@@H]3CCCN(C(=O)/C(C#N)=C/C4CC4)C3)c3ncnc(N)c23)c2ccccc21 [1e, (R,E)-2-(3-(4-Amino-3-(1-methyl-1H-indol-3-yl)-1H-pyrazolo[3,4-d]pyrimidin-1-yl)piperidine-1-carbonyl)-3-cyclopropylacrylonitrile]	338 ± 69	85 ± 34	213 ± 49	1670 ± 450	0.00283	10000 ± 10000	79 ± 9	0.002	260000 ± 70000	83 ± 10	0.00217	360000 ± 20000			
